Columns and labels:
Type in all cases: in vivo
Details in all cases: Dicamba 560 g ae/ha alone; Induce 0.25% v/v
[1] = test system: waterhemp (Amaranthus tuberculatus, AMATA); assay: Greenhouse trial: dicamba (Engenia) with copolymer CP1, postemergence weed control
[2] = test system: common lambsquarters (Chenopodium album; OCHEAL); assay: as above
[3] = test system: velvetleaf (Abutilon theophrasti, ABUTH); assay: as above
AMATA, ABUTH, CHEAL = assay: Greenhouse trial: dicamba with copolymer CP1, mean over the three weed species

With COc1c(Cl)ccc(Cl)c1C(=O)O [Dicamba, dicamba] the “% Control (21 Days after Treatment) AMATA” value [1] was 83%, the “% Control (21 Days after Treatment) CHEAL” value [2] was 86% and the “% Control (21 Days after Treatment) ABUTH” value [3] was 53%. For the same molecule, the “% Control (21 Days after Treatment) Mean” value (AMATA, ABUTH, CHEAL) was 74%.
